Measured values from US12023319B2, “Carboxylic acid aromatic amides” (priority 2016, dated 2024).
Several values for one entry are separate records, joined by “and”; a condition that tells them apart may be missing. Identical values can stand only once.

Tests used:
Female Brown Norway rats = experiment: Rat model for endometriosis, late phase (15 day); format: in vivo; details: rat 15 day endometriosis model, once daily p.o. 5, 30, 60 mg/kg; FIG. 5-6
Procedure: 5. Rat Model for Endometriosis, Late Phase Female Brown Norway rats (Charles-River) were treated with Compound Example 3 (doses: 5 mg/kg, 30 mg/kg, 60 mg/kg) or vehicle alone (10% DMSO+90% phosphate buffered saline (PBS). 2 h later all animals got under deep anesthesia a transplantation of 6 uterus pieces in the peritoneal cavity. The tissue was obtained from donor animals which were pre-treated with 3 μg s.c. Estradiol for 2 days to guarantee standardized conditions of the uterus tissue. The animals were treated once daily p.o. with Compound Example 3 (doses: 5 mg/kg, 30 mg/kg, 60 mg/kg) or respective vehicle (10% DMSO+90% phosphate buffered saline (PBS). 15 days later the animals were sacrificed and the transplants as surrogate endometriosis lesion tissue were analyzed for markers of lesion activity (inflammatory cytokines). This approach is mimicking the long term effect on established inflammation in endometriosis. Analysis For ex vivo cytokine analysis, animals were sacrificed and tissues (endometriosis lesions) were frozen at −80° C. […] After centrifugation at 13.000 U/min (Eppendorf) supernatants were analyzed for cytokine levels using Bio-Plex Pro™ Rat Cytokine 24-plex (Bio Rad Assay #171K1001M) or the Bio-Plex Pro™ Mouse Cytokine 23-Plex (Bio Rad Assay #M600009RDPD) according to the manufacturer's protocols.

Male Sprague-Dawley rats = experiment: Rat STZ model for diabetic neuropathy (cold plate, warm plate, paw pressure, SNCV); format: in vivo; details: for Latency in Cold plate / Latency in Warm plate / Paw pressure: STZ rats; for Latency in Cold plate / Latency in Warm plate: Day 10, individual animals; for Paw pressure: Day 21, individual animals
Procedure: 7. Rat STZ Model for Diabetic Neuropathy (Diabetic Neuropathic Pain, Diabetes Induced Nerve Degeneration)
The streptozotocin (STZ) diabetic rat is the most extensively studied animal model of diabetic neuropathy. The animals develop rapidly allodynia and hyperalgesia.
Male Sprague-Dawley rats (˜200 g) were used. They were rendered diabetic by intravenous injection of streptozotocin (55 mg/kg; day 0). Four days (day 4) later, diabetes was confirmed in STZ-injected rats by obtaining a blood sample from the tail vein and by measuring the glucose concentration using a glucose monitor. Only STZ-treated rats with plasma-glucose>260 mg/dl were deemed “diabetic”. The body weight of rats was recorded on daily basis from day 4 to 40.
72 animals were randomly assigned to different groups (12 rats per group).
Compound example 3 was prepared in 10% DMSO in PBS (v/v). […] The treatment was performed on daily basis (twice a day: morning and afternoon) from day 4 until day 40. On the day where behavioral measures are performed, compound or vehicle was given 60 min prior the assessment. On the day where electrophysiological measure was performed, treatment was performed after the assessment.
For positive control regarding analgesia, morphine was dissolved in 0.9% NaCl, and administrated subcutaneously (s.c.) at the dose of 3 mg/kg 45 min prior the tests.
Experimental Plan: • Day 0: induction of diabetes by injection of STZ for all groups except the control group injected with the STZ vehicle • Day 4: glycemia monitoring for all groups and start of the treatment for all groups, except the morphine group. On day 4 rats received only the evening treatment. • Day 10: cold and warm allodynia test for all groups. Treatment is given 60 min prior to the assessment. On that day, the time between the morning and the evening treatment was reduced. • Day 21: Mechanical hyperalgesia test for all groups. Compound or vehicle was given 60 min prior to the assessment. On that day, the time between the morning and the evening treatment was reduced. • Day 22: Termination of rats in the morphine group. • Day 25-26: measurement of sensory nerve conduction velocity (SNCV). On that day, rats only received the evening treatment. • Day 39-40: measurement of sensory nerve conduction velocity (SNCV). On that day, rats only received the evening treatment. • Day 41: skin biopsy from all rats (histology processing and immunostaining of skin biopsy from 7 rats per group take about 4 weeks).
Cold Plate Test on Day 10
The animals were placed into a glass cylinder on a cold platform (0-1° C.). The latency before the first reaction (brisk move of the paw, little leaps) was recorded with a maximal time of 30 s.
Warm Plate Test on Day 10
The animals were placed into a glass cylinder on a hot plate adjusted to 42° C. The latency of the first reaction was recorded (paw lifting or licking, leaps or a jump to escape the heat). Results can be seen in FIG. 8 and table 6.
Paw pressure test is used to assess the hyperalgesia of animals in response to noxious mechanical stimulus. The nociceptive flexion reflex was quantified using the Randall-Selitto paw pressure device (Bioseb, France), which applies a linearly increasing mechanical force to the dorsum of the rat's hind paw. The mechanical nociceptive threshold is defined as the force in grams at which the rat withdraws its paw. The cut off pressure was set to 250 g.
Electrophysiological Measurements (SNCV)
Electrophysiological recordings of SNCV were performed using a Keypoint Electromyograph (EMG) (Medtronic, France). Rats were anaesthetized by intraperitoneal injection of 60 mg/kg ketamine chlorhydrate and 4 mg/kg xylazine. SNCV was recorded in the tail. Electrodes were placed as follows: The recording needle electrode was inserted near the base of the tail and stimulating needle electrode is placed about 50 mm away from the recording electrode towards the extremity of the tail. […]

In the case of `O=C(O)c1cc(NC(=O)C2(c3ccc(C(F)(F)F)cc3F)CC2)ccc1-c1cnn(C2CCC2)c1` [Example 3, 2-(1-Cyclobutyl-1H-pyrazol-4-yl)-5-[({1-[2-fluoro-4-(trifluoromethyl)phenyl]cyclopropyl}carbonyl)amino]benzoic acid], the “expression of inflammatory cytokines in the lesions (IL-1 alpha, IL-1 beta)” value (Female Brown Norway rats) is reported as “decreased”, the “effects in all endpoints (warm/cold/mechanical) of neuropathic pain” value (Male Sprague-Dawley rats; STZ diabetic rats, p.o. twice a day from day 4, tests on day 10 and day 21) is reported as “significant effects” and the “Latency in Cold plate” value (Male Sprague-Dawley rats; 3 mg/kg, 3 mg/kg) is reported as 14.39 s and 14.46 s and 22.78 s and 15.84 s and 16.87 s and 16.18 s and 21.38 s and 20.52 s and 17.93 s and 15.23 s and 26.66 s and 23.47 s. The “Latency in Warm plate” value (Male Sprague-Dawley rats; 3 mg/kg, 3 mg/kg) was 19.71 s and 21.41 s and 22.31 s and 20.16 s and 14.49 s and 17.12 s and 22.29 s and 17.89 s (2×) and 23.35 s and 24.72 s and 21.04 s, the Paw pressure (Male Sprague-Dawley rats; 3 mg/kg, 3 mg/kg) was 125 g (3×) and 150 g (2×) and 105 g (4×) and 115 g and 140 g and 100 g and the “Latency in Cold plate” value (Male Sprague-Dawley rats; 15 mg/kg, 15 mg/kg) was 22.94 s and 18.19 s and 23.62 s and 18.66 s and 20.23 s and 19.51 s and 23.02 s and 17.08 s and 24.66 s and 24.25 s and 20.00 s. For the same molecule, the “Latency in Warm plate” value (Male Sprague-Dawley rats; 15 mg/kg, 15 mg/kg) was 21.21 s and 17.56 s and 30.00 s and 23.09 s and 23.47 s and 19.44 s and 28.47 s and 15.88 s and 24.82 s and 20.31 s and 27.35 s, the Paw pressure (Male Sprague-Dawley rats; 15 mg/kg, 15 mg/kg) was 100 g and 125 g (2×) and 135 g (2×) and 120 g and 110 g (3×) and 85 g and 105 g and the “Latency in Cold plate” value (Male Sprague-Dawley rats; 60 mg/kg, 60 mg/kg) was 20.21 s and 15.60 s and 17.29 s and 19.84 s and 14.52 s and 13.66 s and 22.28 s and 24.12 s and 21.12 s and 17.48 s and 22.45 s and 16.59 s. The “Latency in Warm plate” value (Male Sprague-Dawley rats; 60 mg/kg, 60 mg/kg) was 17.88 s and 24.69 s and 21.32 s and 18.69 s and 21.23 s and 28.84 s and 18.84 s and 30.00 s and 23.02 s and 20.56 s and 26.94 s and 20.31 s and the Paw pressure (Male Sprague-Dawley rats; 60 mg/kg, 60 mg/kg) was 105 g and 165 g and 95 g and 115 g (3×) and 140 g and 120 g and 110 g (3×) and 190 g.
